Laboratory results reported in the supplement of paper PMC9663587.

Experiments:
BSJ-03-123 = compound: CC(=O)c1c(C)c2cnc(Nc3ccc(N4CCN(CCOCCOCCOCCNC(=O)COc5cccc6c5C(=O)N(C5CCC(=O)NC5=O)C6=O)CC4)cn3)nc2n(C2CCCC2)c1=O [BSJ-03-123]; assay: GR value, 72 h; higher = faster growth (1 = untreated, <0 = killing);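 note: breast cancer and non-malignant breast epithelial lines, nine half-log doses, viable cells counted by Hoechst and LIVE/DEAD dye imaging versus time-zero plates and DMSO controls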
YKL-5-124 = compound: C=CC(=O)Nc1ccc(C(=O)Nc2[nH]nc3c2CN(C(=O)N[C@H](CN(C)C)c2ccccc2)C3(C)C)cc1 [YKL-5-124]; assay: as above
[1] = compound: CCN1CCN(Cc2ccc(Nc3ncc(F)c(-c4cc(F)c5nc(C)n(C(C)C)c5c4)n3)nc2)CC1; assay: as above
THZ531 [2] = compound: T1, CN(C)C/C=C/C(=O)Nc1ccc(C(=O)N2CCC[C@@H](Nc3ncc(Cl)c(-c4c[nH]c5ccccc45)n3)C2)cc1 [THZ531]; assay: as above
[3] = compound: CCc1cnn2c(NCc3ccc[n+]([O-])c3)cc(N3CCCC[C@H]3CCO)nc12; assay: as above
THZ1 = compound: CN(C)C/C=C/C(=O)Nc1ccc(C(=O)Nc2cccc(Nc3ncc(Cl)c(-c4c[nH]c5ccccc45)n3)c2)cc1 [THZ1]; assay: as above
[4] = compound: CC(=O)c1c(C)c2cnc(Nc3ccc(N4CCNCC4)cn3)nc2n(C2CCCC2)c1=O; assay: as above
LEE011/Ribociclib = compound: CN(C)C(=O)c1cc2cnc(Nc3ccc(N4CCNCC4)cn3)nc2n1C1CCCC1 [LEE011/Ribociclib]; assay: as above
senexin b = compound: CN1CCN(C(=O)c2ccc3cc(CCNc4ncnc5ccc(C#N)cc45)ccc3c2)CC1 [senexin b]
Tivantinib/ARQ197 = compound: O=C1NC(=O)[C@@H](c2cn3c4c(cccc24)CCC3)[C@@H]1c1c[nH]c2ccccc12 [Tivantinib/ARQ197]
THZ531 [5] = compound: T1, THZ531
BSJ-01-175 = compound: CN(C)C/C=C/C(=O)Nc1ccc(O[C@@H]2CCC[C@@H](Nc3ncc(Cl)c(-c4c[nH]c5ccccc45)n3)C2)cc1 [BSJ-01-175]
Pictilisib/GDC0941 = compound: CS(=O)(=O)N1CCN(Cc2cc3nc(-c4cccc5[nH]ncc45)nc(N4CCOCC4)c3s2)CC1 [Pictilisib/GDC0941]
Rucaparib = compound: CNCc1ccc(-c2[nH]c3cc(F)cc4c3c2CCNC4=O)cc1 [Rucaparib]
AZD6738 = compound: C[C@@H]1COCCN1c1cc(C2([S@](C)(=N)=O)CC2)nc(-c2cc[nH]c3nccc2-3)n1 [AZD6738]
Cediranib/AZD2171 = compound: COc1cc2c(Oc3ccc4[nH]c(C)cc4c3F)ncnc2cc1OCCCN1CCCC1 [Cediranib/AZD2171]
Ceritinib/LDK378 = compound: Cc1cc(Nc2ncc(Cl)c(Nc3ccccc3S(=O)(=O)C(C)C)n2)c(OC(C)C)cc1C1CCNCC1 [Ceritinib/LDK378]
Paclitaxel = compound: CC(=O)O[C@H]1C(=O)[C@@]2(C)[C@H]([C@H](OC(=O)c3ccccc3)[C@]3(O)C[C@H](OC(=O)[C@H](O)[C@@H](NC(=O)c4ccccc4)c4ccccc4)C(C)=C1C3(C)C)[C@]1(OC(C)=O)CO[C@@H]1C[C@@H]2O [Paclitaxel]
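Throughout, for GR50, 72 h: breast cancer and non-malignant breast epithelial cell lines, Deep Dye Drop or Dye Drop imaging, nine half-log doses, GR normalized to time-zero plates and DMSO-only controls.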

## MCF7
BSJ-03-123; 0.001 µM
  GR value: 0.928 GR
BSJ-03-123; 0.003162 µM
  GR value: 0.899 GR
BSJ-03-123; 0.01 µM
  GR value: 0.858 GR
BSJ-03-123; 0.03162 µM
  GR value: 0.784 GR
BSJ-03-123; 0.1 µM
  GR value: 0.789 GR
BSJ-03-123; 0.3162 µM
  GR value: 0.727 GR
BSJ-03-123; 1 µM
  GR value: 0.604 GR
BSJ-03-123; 3.162 µM
  GR value: 0.544 GR
BSJ-03-123; 10 µM
  GR value: -0.327 GR
YKL-5-124; 0.001 µM
  GR value: 0.557 GR
YKL-5-124; 0.003162 µM
  GR value: 0.403 GR
YKL-5-124; 0.01 µM
  GR value: 0.316 GR
YKL-5-124; 0.03162 µM
  GR value: 0.266 GR
YKL-5-124; 0.1 µM
  GR value: 0.18 GR
YKL-5-124; 0.3162 µM
  GR value: 0.0831 GR
YKL-5-124; 1 µM
  GR value: 0.131 GR
YKL-5-124; 3.162 µM
  GR value: 0.0763 GR
YKL-5-124; 10 µM
  GR value: -0.269 GR
[1]; 0.001 µM
  GR value: 0.893 GR
[1]; 0.003162 µM
  GR value: 0.789 GR
[1]; 0.01 µM
  GR value: 0.512 GR
[1]; 0.03162 µM
  GR value: 0.349 GR
[1]; 0.1 µM
  GR value: 0.236 GR
[1]; 0.3162 µM
  GR value: 0.235 GR
[1]; 1 µM
  GR value: 0.0993 GR
[1]; 3.162 µM
  GR value: -0.189 GR
[1]; 10 µM
  GR value: -0.268 GR
THZ531 [2]; 0.0001 µM
  GR value: 0.957 GR
THZ531 [2]; 0.0003162 µM
  GR value: 1.06 GR
THZ531 [2]; 0.001 µM
  GR value: 0.957 GR
THZ531 [2]; 0.003162 µM
  GR value: 1.02 GR
THZ531 [2]; 0.01 µM
  GR value: 1.08 GR
THZ531 [2]; 0.03162 µM
  GR value: 0.827 GR
THZ531 [2]; 0.1 µM
  GR value: 0.225 GR
THZ531 [2]; 0.3162 µM
  GR value: -0.0791 GR
THZ531 [2]; 1 µM
  GR value: -0.391 GR
[3]; 0.0001 µM
  GR value: 1.02 GR
[3]; 0.0003162 µM
  GR value: 0.997 GR
[3]; 0.001 µM
  GR value: 0.979 GR
[3]; 0.003162 µM
  GR value: 0.967 GR
[3]; 0.01 µM
  GR value: 0.3 GR
[3]; 0.03162 µM
  GR value: -0.247 GR
[3]; 0.1 µM
  GR value: -0.276 GR
[3]; 0.3162 µM
  GR value: -0.241 GR
[3]; 1 µM
  GR value: -0.255 GR
THZ1; 0.0001 µM
  GR value: 1.08 GR
THZ1; 0.0003162 µM
  GR value: 0.931 GR
THZ1; 0.001 µM
  GR value: 0.926 GR
THZ1; 0.003162 µM
  GR value: 0.941 GR
THZ1; 0.01 µM
  GR value: 0.78 GR
THZ1; 0.03162 µM
  GR value: 0.366 GR
THZ1; 0.1 µM
  GR value: -0.103 GR
THZ1; 0.3162 µM
  GR value: -0.305 GR
THZ1; 1 µM
  GR value: -0.461 GR
[4]; 0.0003162 µM
  GR value: 1.04 GR
[4]; 0.001 µM
  GR value: 1.02 GR
[4]; 0.003162 µM
  GR value: 0.962 GR
[4]; 0.01 µM
  GR value: 0.85 GR
[4]; 0.03162 µM
  GR value: 0.626 GR
[4]; 0.1 µM
  GR value: 0.476 GR
[4]; 0.3162 µM
  GR value: 0.355 GR
[4]; 1 µM
  GR value: 0.297 GR
[4]; 3.162 µM
  GR value: 0.254 GR
LEE011/Ribociclib; 0.001 µM
  GR value: 0.87 GR
LEE011/Ribociclib; 0.003162 µM
  GR value: 0.786 GR
LEE011/Ribociclib; 0.01 µM
  GR value: 0.682 GR
LEE011/Ribociclib; 0.03162 µM
  GR value: 0.651 GR
LEE011/Ribociclib; 0.1 µM
  GR value: 0.53 GR
LEE011/Ribociclib; 0.3162 µM
  GR value: 0.414 GR
LEE011/Ribociclib; 1 µM
  GR value: 0.407 GR
LEE011/Ribociclib; 3.162 µM
  GR value: 0.275 GR
LEE011/Ribociclib; 10 µM
  GR value: 0.295 GR
Senexin b
  GR50, 72 h: > 10 µM
Tivantinib/ARQ197
  GR50, 72 h: 0.151 µM
THZ531 [5]
  GR50, 72 h: 0.061 µM
BSJ-01-175
  GR50, 72 h: 0.006 µM
Pictilisib/GDC0941
  GR50, 72 h: 0.13 µM
Rucaparib
  GR50, 72 h: > 10 µM
AZD6738
  GR50, 72 h: 3.05 µM
Cediranib/AZD2171
  GR50, 72 h: 5.7 µM
Ceritinib/LDK378
  GR50, 72 h: 0.344 µM
Paclitaxel
  GR50, 72 h: 0.00138 µM

## MCF10A
BSJ-03-123; 0.001 µM
  GR value: 0.915 GR
BSJ-03-123; 0.003162 µM
  GR value: 0.877 GR
BSJ-03-123; 0.01 µM
  GR value: 0.81 GR
BSJ-03-123; 0.03162 µM
  GR value: 0.76 GR
BSJ-03-123; 0.1 µM
  GR value: 0.736 GR
BSJ-03-123; 0.3162 µM
  GR value: 0.708 GR
BSJ-03-123; 1 µM
  GR value: 0.577 GR
BSJ-03-123; 3.162 µM
  GR value: 0.502 GR
BSJ-03-123; 10 µM
  GR value: -0.113 GR
YKL-5-124; 0.001 µM
  GR value: 0.472 GR
YKL-5-124; 0.003162 µM
  GR value: 0.235 GR
YKL-5-124; 0.01 µM
  GR value: 0.149 GR
YKL-5-124; 0.03162 µM
  GR value: 0.0788 GR
YKL-5-124; 0.1 µM
  GR value: 0.0321 GR
YKL-5-124; 0.3162 µM
  GR value: 0.0253 GR
YKL-5-124; 1 µM
  GR value: 0.0094 GR
YKL-5-124; 3.162 µM
  GR value: -0.0385 GR
YKL-5-124; 10 µM
  GR value: -0.153 GR
[1]; 0.001 µM
  GR value: 0.981 GR
[1]; 0.003162 µM
  GR value: 0.95 GR
[1]; 0.01 µM
  GR value: 0.882 GR
[1]; 0.03162 µM
  GR value: 0.78 GR
[1]; 0.1 µM
  GR value: 0.665 GR
[1]; 0.3162 µM
  GR value: 0.543 GR
[1]; 1 µM
  GR value: 0.364 GR
[1]; 3.162 µM
  GR value: 0.255 GR
[1]; 10 µM
  GR value: 0.159 GR
THZ531 [2]; 0.0001 µM
  GR value: 0.985 GR
THZ531 [2]; 0.0003162 µM
  GR value: 0.995 GR
THZ531 [2]; 0.001 µM
  GR value: 1.01 GR
THZ531 [2]; 0.003162 µM
  GR value: 1 GR
THZ531 [2]; 0.01 µM
  GR value: 1.01 GR
THZ531 [2]; 0.03162 µM
  GR value: 0.981 GR
THZ531 [2]; 0.1 µM
  GR value: 0.903 GR
THZ531 [2]; 0.3162 µM
  GR value: 0.612 GR
THZ531 [2]; 1 µM
  GR value: -0.625 GR
[3]; 0.0001 µM
  GR value: 1.01 GR
[3]; 0.0003162 µM
  GR value: 1.01 GR
[3]; 0.001 µM
  GR value: 1.02 GR
[3]; 0.003162 µM
  GR value: 1.04 GR
[3]; 0.01 µM
  GR value: 0.958 GR
[3]; 0.03162 µM
  GR value: -0.188 GR
[3]; 0.1 µM
  GR value: -0.226 GR
[3]; 0.3162 µM
  GR value: -0.223 GR
[3]; 1 µM
  GR value: -0.223 GR
THZ1; 0.0001 µM
  GR value: 0.995 GR
THZ1; 0.0003162 µM
  GR value: 1.01 GR
THZ1; 0.001 µM
  GR value: 0.985 GR
THZ1; 0.003162 µM
  GR value: 0.992 GR
THZ1; 0.01 µM
  GR value: 0.896 GR
THZ1; 0.03162 µM
  GR value: 0.69 GR
THZ1; 0.1 µM
  GR value: 0.32 GR
THZ1; 0.3162 µM
  GR value: -0.0551 GR
THZ1; 1 µM
  GR value: -0.563 GR
[4]; 0.0003162 µM
  GR value: 0.996 GR
[4]; 0.001 µM
  GR value: 0.999 GR
[4]; 0.003162 µM
  GR value: 0.979 GR
[4]; 0.01 µM
  GR value: 0.939 GR
[4]; 0.03162 µM
  GR value: 0.852 GR
[4]; 0.1 µM
  GR value: 0.748 GR
[4]; 0.3162 µM
  GR value: 0.653 GR
[4]; 1 µM
  GR value: 0.582 GR
[4]; 3.162 µM
  GR value: 0.444 GR
LEE011/Ribociclib; 0.001 µM
  GR value: 0.91 GR
LEE011/Ribociclib; 0.003162 µM
  GR value: 0.888 GR
LEE011/Ribociclib; 0.01 µM
  GR value: 0.821 GR
LEE011/Ribociclib; 0.03162 µM
  GR value: 0.781 GR
LEE011/Ribociclib; 0.1 µM
  GR value: 0.79 GR
LEE011/Ribociclib; 0.3162 µM
  GR value: 0.756 GR
LEE011/Ribociclib; 1 µM
  GR value: 0.732 GR
LEE011/Ribociclib; 3.162 µM
  GR value: 0.665 GR
LEE011/Ribociclib; 10 µM
  GR value: 0.434 GR
Senexin b
  GR50, 72 h: > 10 µM
Tivantinib/ARQ197
  GR50, 72 h: 0.181 µM
THZ531 [5]
  GR50, 72 h: 0.358 µM
BSJ-01-175
  GR50, 72 h: 1.46 µM
Pictilisib/GDC0941
  GR50, 72 h: 1.88 µM
Rucaparib
  GR50, 72 h: > 10 µM
AZD6738
  GR50, 72 h: 9.08 µM
Cediranib/AZD2171
  GR50, 72 h: 9.75 µM
Ceritinib/LDK378
  GR50, 72 h: 2.99 µM
Paclitaxel
  GR50, 72 h: 0.00268 µM
